According to paper PMC8765781, “A platform of assays for the discovery of anti-Zika small-molecules with activity in a 3D-bioprinted outer-blood-retina model” (PLoS ONE, 2022):
Read-outs that look alike come from different tables or passages of the source. Where a SMILES comes first, the peptide text is derived from it. [ ]: non-standard residue; d: D form. ξ: configuration not given here. ξLac(3-iPr) = CC(C)CC(O)C(=O)O; NMeV = CN[CH](C(=O)O)C(C)C; NMeA = CN[CH](C)C(=O)O; βAla = NCCC(=O)O

Tested on: wild-type ZIKV (Ugandan MR766 strain) in Vero cells
Assay: ZIKV cytopathic effect (CPE) inhibition qHTS assay, CellTiter-Glo readout
Type: cell-based, Zika virus
Conditions: for AC50 / Emax: Zika virus, Vero; for Emax: read-out: Max response
[1] = read-out: Log AC50 (M) (converted)

SMILES	Efficacy	AC50 [M]	CC-v2 (curve class classification of the dose response curve)	AC50 [1] [M]	also measured
C[C@H]1C(=O)N2c3ccccc3[C@@]3(O)C[C@@H]4C(=O)N[C@](C)(c5nc6ccccc6c(=O)n54)N1[C@@H]23 [NCGC00169614-02]	-78.987	1.59e-05			Curve class: -3; AC50 (read-out: Log AC50 (converted)): 1.59e-05 M; Emax: 0.173%
C=C(C(=O)O)[C@@H]1CC[C@@]2(C)CCC[C@@](C)(O)[C@@H]2C1 [NCGC00169889-02]	-77.65	2.91e-05			Curve class: -3; AC50 (read-out: Log AC50 (converted)): 2.91e-05 M; Emax: -0.865%
CCC(C)C1NC(=O)C2CCCN2C(=O)C(CC(C)C)OC(=O)CCNC(=O)C(C)N(C)C(=O)C(C(C)C)N(C)C1=O (centres unmarked) [NCGC00169957-03] (cyclo([ξLac(3-iPr)]PI[NMeV][NMeA][βAla]); configuration not given here)	-56.609	1.93e-05	-2.2	1.93e-05	
CC1(C)CC[C@]2(C(=O)O)CC[C@]3(C)C(=CCC4[C@@]5(C)CC[C@H](O[C@@H]6O[C@H](C(=O)O)[C@@H](O[C@@H]7OC[C@@H](O)[C@H](O)[C@H]7O)[C@H](O)[C@H]6O)C(C)(C)C5CC[C@]43C)C2C1O (some centres unmarked) [NCGC00179805-02]	-39.908	2.73e-05	-3	2.73e-05	
COC(=O)C12CCC(C)C(C)C1C1=CCC3C4(C)CCC(OC(C)=O)C(C)(C)C4CCC3(C)C1(C)CC2 (centres unmarked) [NCGC00179932-02]	-73.633	1.42e-05	-3	1.42e-05	
C=C(C)C1=C[C@@]2(C)C(=CC1=O)CC[C@@H](O)[C@@H]2C [NCGC00180357-02]	-25.033	1.46e-05		1.46e-05	
CO[C@H]1[C@H](O)[C@H](O[C@H]2CC[C@]3(C)C4CC[C@]5(C)[C@H](C6=CC(=O)OC6)CC[C@]5(O)C4CC[C@@H]3C2)O[C@@H](C)[C@@H]1O (some centres unmarked) [NCGC00180641-02]	-18.714	1e-06		1e-06	
C=C[C@H]1[C@H](O[C@@H]2O[C@H](CO)[C@@H](O)[C@H](O)[C@H]2O)OC=C2C(=O)OCC[C@H]21 [NCGC00180755-03]					AC50 (from Hill fit of the response curve, 50% of maximum activity response, 194 cherry-picked compounds, protocol name not given, read-out: AC50): 1.28e-05 M; AC50 (potency in log units (Molar) from Hill fit of the response curve, 194 cherry-picked compounds, protocol name not given, read-out: Log AC50 (converted)): 1.28e-05 M; CC-v2 (curve class classification of the dose response curve) (curve class v2 (Inglese et al. 2006)): -3; Efficacy (difference between neutral response and maximum compound response): -78.228
C/C=C(\C)C(=O)O[C@H]1C=C(CO)C(=O)[C@H](OC(C)=O)[C@H]1C(C)C [NCGC00180769-03]	-32.712	4.53e-05	-3	4.53e-05	
COc1cc(O)c2c(c1)/C=C/C[C@H](O)[C@H](O)C(=O)/C=C\C[C@H](C)OC2=O [NCGC00186421-07]	-83.256		-3		
COC(=O)[C@]12CCC(C)(C)C[C@H]1[C@H]1C(=O)C=C3[C@@]4(C)C=C(C#N)C(=O)C(C)(C)[C@@H]4CC[C@@]3(C)[C@]1(C)CC2 [NCGC00186460, bardoxolone methyl, reference compound]					Identified as active in CPE assay validation set: identified
COc1cc2c(NC3CCN(C(C)C)CC3)nc(C3CCCCC3)nc2cc1OCCCN1CCCC1 [NCGC00189220-03]	-26.68	7.31e-05		7.31e-05	
CC(C)(O)CCc1ccc(OCc2cc(-c3cccc(OC(F)F)c3)c3ncccc3c2)cc1 [NCGC00249759-02]	-26.837	3.26e-05		3.26e-05	
COc1c(Cl)cc2c([nH]c3cnccc32)c1NC(=O)c1cccnc1C [NCGC00263021-04]	-34.501	6.51e-05	-2.2	6.51e-05	
O=C1[C@H](CC[C@H](O)c2ccc(F)cc2)[C@@H](c2ccc(O)cc2)N1c1ccc(F)cc1 [NCGC00263575-07]	-30.405	2.91e-05		2.91e-05	
CCN(CC)C(=O)Nc1ccc(OCC(O)CNC(C)(C)C)c(C(C)=O)c1 (centres unmarked) [NCGC00344562-02]	-33.868	3.26e-05	-3	3.26e-05	
CN1CCC(COc2cnc(-c3cccc(Cn4nc(-c5cccc(C#N)c5)ccc4=O)c3)nc2)CC1 [NCGC00345793-08]	-35.437	6.51e-05		6.51e-05	
CC[C@H](CC#N)OC(=O)N[C@@H](C)c1cccc(NC(=O)Nc2ccc(-c3cnco3)c(OC)c2)c1 [NCGC00345803-05]	-31.6	7.31e-05		7.31e-05	
COc1cc(Nc2nc3ccccc3nc2N[S+](=O)([O-])c2ccc(NC(=O)c3ccc(C)c(OC)c3)cc2)cc(OC)c1 [NCGC00346541-08]	-33.022	5.8e-05		5.8e-05	
C[C@H]1[C@H](C)CC[C@]2(C(=O)O)CC[C@]3(C)C(=CC[C@@H]4[C@@]5(C)C[C@@H](O)[C@H](O)[C@@](C)(CO)[C@@H]5CC[C@]43C)[C@H]12 [NCGC00346584-02]	-33.569	5.8e-05		5.8e-05	
